# Assay results published in patent US20240409542A1, “NOVEL COMPOUNDS” (Sitryx Therapeutics Limited, priority 2021, published 2024).
# pEC50: −log10 of the molar value.
# Columns and labels:
# [1] = molecular target: recombinant human PKM2 (Homo sapiens (Human), UniProt P14618); test: Human PKM2 activation assay (Kinase-Glo Plus luminescence); assay type: biochemical; details: for pEC50: activation of recombinant human PKM2, 4-parameter logistic fit, read-out: hPKM2 EC50; for Emax: read-out: hPKM2 Emax (%)
# Protocol: Compound activation of recombinant human PKM2 pyruvate kinase activity was determined by biochemical assay. N-terminal His-tagged hPKM2 was sourced from R&D Systems and its substrates phosphoenolpyruvate (PEP) and ADP from Sigma-Aldrich and 2BScientific Ltd, respectively. The Kinase-Glo® Plus luminescence assay was from Promega. All other reagents were from Sigma-Aldrich. Test Compounds were prepared as 10 mM DMSO stocks and dilution series prepared in DMSO for direct dilution into Assay Buffer comprising 50 mM imidazole, 50 mM KCl, 7 mM MgCl2, 0.01% Tween20, 0.05% BSA (pH 7.2).
# Human PKM2 was diluted into Assay Buffer comprising 50 mM imidazole, 50 mM KCl, 7 mM MgCl2, 0.01% Tween20, 0.05% BSA (pH 7.2) to a final concentration of 5 pM. Enzyme-Assay Buffer mix was dispensed into a 384-well shallow-well white-walled plate (PerkinElmer) and Test Compounds added by acoustic dispense (Echo®, Labcyte Inc.).
# After 60 minutes' incubation on an orbital shaker (300 rpm, 26° C.), enzyme activity was quantified by the luminescent detection of generated ATP. Kinase-Glo® Plus reagent was added to each well and the plates incubated for a further 15 minutes on an orbital shaker in the dark (300 rpm, 26° C.) before luminescence measurement on a plate reader (PHERAstar® FSX, BMG Labtech).
# EC50 and Emax values were determined from 4-parameter logistic fits of compound concentration-response curves.
# [2] = Kinetic aqueous solubility; details: phosphate buffered saline (PBS) pH 7.4, pH 7.4, aqueous buffer, kinetic from dmso stock, Kinetic solubility (Ksol), (μg/ml), PBS pH 7.4, 200 μM (2% DMSO), RT
# Protocol: Phosphate buffered saline (PBS) pH 7.4 was prepared using PBS tablets as per the manufacturer's instructions. Compounds and marker stocks are prepared at 10 mM in DMSO.
# Compounds were incubated at 200 μM (2% DMSO) in Millipore—MSS LB PC 10 or Porvair—ref: 36004 plates in the presence of the prepared PBS pH 7.4 solution for 1.5 h, at RT, with gentle shaking. […] The samples were then analysed in a 96 well UV Star analysis plate on a plate reader from 220 nm to 500 nm at 10 nm increments.
# The concentration of the samples was calculated against the standard curves.
# Sequence of recombinant human PKM2 (P14618 whole entry): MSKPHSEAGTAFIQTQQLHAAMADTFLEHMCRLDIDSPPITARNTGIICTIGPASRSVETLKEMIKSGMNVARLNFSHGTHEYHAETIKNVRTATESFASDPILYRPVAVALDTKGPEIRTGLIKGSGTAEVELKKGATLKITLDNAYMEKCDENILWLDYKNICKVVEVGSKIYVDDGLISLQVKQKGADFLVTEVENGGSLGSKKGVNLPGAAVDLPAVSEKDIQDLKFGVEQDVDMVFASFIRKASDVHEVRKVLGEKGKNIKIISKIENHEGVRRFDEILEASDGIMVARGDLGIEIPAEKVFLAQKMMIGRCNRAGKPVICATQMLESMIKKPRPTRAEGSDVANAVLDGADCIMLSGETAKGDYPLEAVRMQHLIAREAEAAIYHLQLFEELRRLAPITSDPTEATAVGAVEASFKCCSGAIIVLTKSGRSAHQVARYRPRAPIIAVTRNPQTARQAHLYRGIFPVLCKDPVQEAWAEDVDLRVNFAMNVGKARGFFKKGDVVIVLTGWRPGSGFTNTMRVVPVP
SMILES,pEC50 [1],Emax [1] [%],solubility kinetic at 1.5 h [2] [µg/mL]
"COc1ccc(S(=O)(=O)N2CCc3c(n(C)c4c(=O)n(Cc5ccc6c(c5)CCO6)ncc34)C2)cc1 [Example 23, 3-((2,3-dihydrobenzofuran-5-yl)methyl)-7-((4-methoxyphenyl)sulfonyl)-5-methyl-3,5,6,7,8,9-hexahydro-4H-pyrido[4′,3′:4,5]pyrrolo[2,3-d]pyridazin-4-one]",6.50,58.3,
"Cn1c2c(c3cnn(Cc4cccc(C(C)(C)O)c4)c(=O)c31)CCN(S(C)(=O)=O)C2 [Example 33, 3-(3-(2-hydroxypropan-2-yl)benzyl)-5-methyl-7-(methylsulfonyl)-3,5,6,7,8,9-hexahydro-4H-pyrido[4′,3′:4,5]pyrrolo[2,3-d]pyridazin-4-one]",,96.5,19.8
"Cn1c2c(c3cnn(Cc4cccc(S(N)(=O)=O)c4)c(=O)c31)CCN(S(C)(=O)=O)C2 [Example 18, 3-((5-methyl-7-(methylsulfonyl)-4-oxo-4,5,6,7,8,9-hexahydro-3H-pyrido [4′,3′:4,5]pyrrolo[2,3-d]pyridazin-3-yl)methyl)benzenesulfonamide]",6.40,58.7,18.3
"Cn1c2c(c3cnn(Cc4c[nH]c5cc(F)ccc45)c(=O)c31)CCN(S(C)(=O)=O)C2 [Example 39, 3-((6-fluoro-1H-indol-3-yl)methyl)-5-methyl-7-(methylsulfonyl)-6,7,8,9-tetrahydro-3H-pyrido[4′,3′:4,5]pyrrolo[2,3-d]pyridazin-4(5H)-one]",6.66,92.7,1.09
"Cn1c2cc([S+](C)[O-])sc2c2cnn(Cc3cccc(N)c3)c(=O)c21 (centres unmarked) [TEPP-46, reference compound]",,113,0.15
"Cn1c2c(c3cnn(Cc4ccc5c(c4)CC(C)(C)O5)c(=O)c31)CCN(S(C)(=O)=O)C2 [Example 24, 3-((2,2-dimethyl-2,3-dihydrobenzofuran-5-yl)methyl)-5-methyl-7-(methylsulfonyl)-3,5,6,7,8,9-hexahydro-4H-pyrido[4′,3′:4,5]pyrrolo[2,3-d]pyridazin-4-one]",6.73,90.9,
"Cn1c2c(c3cnn(Cc4c[nH]c5ccc(F)cc45)c(=O)c31)CCN(S(C)(=O)=O)C2 [Example 38, 3-((5-fluoro-1H-indol-3-yl)methyl)-5-methyl-7-(methylsulfonyl)-6,7,8,9-tetrahydro-3H-pyrido[4′,3′:4,5]pyrrolo[2,3-d]pyridazin-4(5H)-one]",6.12,93.2,
"Cn1c2c(c3cnn(Cc4n[nH]cc4C(N)=O)c(=O)c31)CCN(S(C)(=O)=O)C2 [Example 17, 3-((5-methyl-7-(methylsulfonyl)-4-oxo-4,5,6,7,8,9-hexahydro-3H-pyrido [4′,3′:4,5]pyrrolo[2,3-d]pyridazin-3-yl)methyl)-1H-pyrazole-4-carboxamide]",6.05,98.8,73.1
"Cn1c2c(c3cnn(Cc4c[nH]c5ncccc45)c(=O)c31)CCN(S(C)(=O)=O)C2 [Example 37, 3-((1H-pyrrolo[2,3-b]pyridin-3-yl)methyl)-5-methyl-7-(methylsulfonyl)-3,5,6,7,8,9-hexahydro-4H-pyrido[4′,3′:4,5]pyrrolo[2,3-d]pyridazin-4-one]",6.68,106,59.3
"COCCS(=O)(=O)N1CCc2c(n(C)c3c(=O)n(Cc4ccc(OC)nc4)ncc23)C1 [Example 27, 7-((2-methoxyethyl)sulfonyl)-3-((6-methoxypyridin-3-yl)methyl)-5-methyl-3,5,6,7,8,9-hexahydro-4H-pyrido[4′,3′:4,5]pyrrolo[2,3-d]pyridazin-4-one]",6.04,78,
"COc1ccc(S(=O)(=O)N2CCc3c(n(C)c4c(=O)n(Cc5c[nH]c6cnccc56)ncc34)C2)cc1 [Example 35, 3-((1H-pyrrolo[2,3-c]pyridin-3-yl)methyl)-7-((4-methoxyphenyl)sulfonyl)-5-methyl-3,5,6,7,8,9-hexahydro-4H-pyrido[4′,3′:4,5]pyrrolo[2,3-d]pyridazin-4-one]",6.24,78.1,
